Test: Plasma and brain levels of the components by LC-MS/MS after 10 days of HFD containing the exemplary composition
Description: In all studies described below, animals on the test diet received either a high fat diet (HFD) or a low-fat diet (LFD) ad libitum, with the diet further containing the components listed in Table 5.
Adult female wild-type C57/BL6 (Envigo) were used for the experiments. The animals were group housed in plastic cages (3-5 animals/cage) and had access to food and water ad libitum. Experiments were approved by the Institutional Animal Care and Use Committee of Brains On-Line LLC, South San Francisco, CA.
Mice were fed a HFD containing a composition comprising nicotinic acid, berberine, silibinin, lipoic acid and taurine (see Table 5) for 10 days. Subjects were euthanized, and plasma and brain samples were collected after 10 days feeding with a HFD containing the composition. The blood was collected into a vial already containing EDTA anticoagulant. The blood was centrifuged at 2500×g at 4° C. for 10 minutes. Supernatants were stored as plasma samples at −80° C. Immediately following blood collection, whole brains were rapidly extracted, placed into a pre-weighed tube, and weighed. Samples were snap frozen with liquid nitrogen.
Levels of nicotinic acid, berberine, silibinin (active form of Siliphos®), lipoic acid and taurine were quantified in plasma and brain samples by LC-MS/MS.

[1] = female, C57/BL6, mouse, in vivo
[2] = female, C57/BL6, mouse, in vivo, 10 days

Row | concentration at 10 days [1] [nM] | Basal Plasma (basal plasma level, mice, LC-MS/MS) | Cumulative Brain [2] [pmol/g] | Basal Brain (mouse, in vivo) | Basal Brain [1] [nmol/g] | Basal Plasma (mouse, in vivo) | Cumulative Plasma [2] [nM] | Compound | Cumulative Brain (brain after 10 days administration in HFD, mice) [pmol/g]
1 | 68.2 | <LLOQ | 21 | <LLOQ | – | – | – | O=C(O)CCCCC1CCSS1 (stereo not drawn) [Lipoic acid] | –
2 | 1360 | – | 12600 | – | 9.4 | <LLOQ | – | O=C(O)c1cccnc1 [Nicotinic acid] | –
3 | – | – | 12.9 | – | – | – | 21 | COc1cc(C2Oc3cc([C@H]4Oc5cc(O)cc(O)c5C(=O)[C@@H]4O)ccc3OC2CO)ccc1O (stereo partly drawn) [Silibinin] | –

Row | Compound | concentration at 10 days [1] [nM] | Basal Plasma (basal plasma level, mice, LC-MS/MS) | Cumulative Brain [2] [pmol/g] | Basal Brain (mouse, in vivo) | Basal Brain [1] [nmol/g] | Basal Plasma (mouse, in vivo) | Cumulative Plasma [2] [nM] | Cumulative Brain (brain after 10 days administration in HFD, mice) [pmol/g]
4 | COc1ccc2cc3[n+](cc2c1OC)CCc1cc2c(cc1-3)OCO2 [Berberine] | 20.5 | – | – | – | – | – | – | 265

Reference: patent US12201624B2, “Compositions comprising mixtures of compounds and uses thereof” (Prostasis, LLC, priority 2021, dated 2025)
